Active and inactive are the calls of the source. The calls are words filed in the database; no cut-off is given here.
How the values were obtained:
[1] = Cytotoxicity against dog MDCK cells assessed as reduction in cell viability by MTT assay; format: cell-based, Canis lupus familiaris
[2] = target: Neuraminidase (Influenza A virus (A/Puerto Rico/8/1934(H1N1)), UniProt P03468); assay: Inhibition of Influenza A virus (H1N1) neuraminidase
[3] = Selectivity index, ratio of CC50 for dog MDCK cells to EC50 for Influenza A virus (H1N1) infected in dog MDCK cells; format: toxicity, cell-based; conditions: read-out: Ratio CC50/EC50
[4] = test system: Influenza A virus; assay: Antiviral activity against Influenza A virus (H1N1) infected in dog MDCK cells assessed as reduction in log2HA titer incubated for 3 to 4 days by CPE assay; format: functional, organism-based
[5] = target: Neuraminidase (Influenza A virus (A/Puerto Rico/8/1934(H1N1))) (UniProt P03468); assay: Non-competitive inhibition of Influenza A virus (H1N1) neuraminidase by Lineweaver-Burk plot analysis
Chain of Neuraminidase (Influenza A virus (A/Puerto Rico/8/1934(H1N1))) (P03468 whole entry): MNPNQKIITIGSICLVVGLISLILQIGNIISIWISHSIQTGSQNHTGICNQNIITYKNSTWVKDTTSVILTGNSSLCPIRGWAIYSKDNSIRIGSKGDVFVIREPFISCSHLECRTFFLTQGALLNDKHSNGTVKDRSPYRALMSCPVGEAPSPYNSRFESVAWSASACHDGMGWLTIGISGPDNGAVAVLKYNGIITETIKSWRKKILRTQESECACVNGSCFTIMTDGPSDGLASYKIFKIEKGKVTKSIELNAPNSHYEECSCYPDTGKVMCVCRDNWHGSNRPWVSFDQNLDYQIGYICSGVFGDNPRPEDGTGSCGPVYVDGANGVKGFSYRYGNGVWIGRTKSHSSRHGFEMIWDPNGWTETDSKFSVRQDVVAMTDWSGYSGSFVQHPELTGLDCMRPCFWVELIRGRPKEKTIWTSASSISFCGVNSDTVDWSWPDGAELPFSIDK

Chain of Neuraminidase (Influenza A virus (A/Puerto Rico/8/1934(H1N1)), UniProt P03468) (P03468 whole entry): as above

Row | Structure (SMILES) | CC50 [1] | IC50 [2] | selectivity ratio [3] | EC50 [4] | inhibition [5]
1 | O=c1cc(-c2ccccc2Cl)oc2ccccc12 | 388 µM |  |  |  | 
2 | COc1cccc(-c2cc(=O)c3ccccc3o2)c1 | 263 µM | 10.8 µM | 21000 | 0.0126 µM | 
3 | CCC(CC)O[C@@H]1C=C(C(=O)O)C[C@H](N)[C@H]1NC(C)=O [OSELTAMIVIR CARBOXYLATE] | 713 µM |  |  | 0.0071 µM | 
4 | O=C1/C(=C/c2ccc([N+](=O)[O-])cc2)Oc2ccccc21 | 213 µM | 41 µM | 4600 | 0.0463 µM | 
5 | O=C1/C(=C/c2ccc(Cl)cc2)Oc2ccccc21 | 272 µM | 45.4 µM | 5300 | 0.0514 µM | 
6 | COc1ccccc1/C=C1\Oc2ccccc2C1=O [(Z)-2'-METHOXYAURONE] | 273 µM |  |  |  | 
7 | O=C1/C(=C/c2cccc([N+](=O)[O-])c2)Oc2ccccc21 | 396 µM |  |  |  | 
8 | COc1ccccc1-c1cc(=O)c2ccccc2o1 | 171 µM |  |  |  | 
9 | COc1ccc(-c2cc(=O)c3ccccc3o2)cc1 [4'-METHOXYFLAVONE] | 192 µM | 8.74 µM | 20500 | 0.00936 µM | Active
10 | COc1cccc(/C=C2\Oc3ccccc3C2=O)c1 [3'-METHOXY-AURONE] | 7.81 µM |  |  |  | 
11 | O=c1cc(-c2cccc(Cl)c2)oc2ccccc12 | 174 µM | 32.6 µM | 3650 | 0.0477 µM | 
12 | O=C1/C(=C/c2cccc(Cl)c2)Oc2ccccc21 | 26.9 µM |  |  |  | 
13 | COc1ccc(/C=C2\Oc3ccccc3C2=O)cc1 [4'-METHOXY-AURONE] | 169 µM | 37.5 µM | 4800 | 0.0353 µM | Active
14 | O=c1cc(-c2cccc([N+](=O)[O-])c2)oc2ccccc12 | 269 µM | 15.4 µM | 19100 | 0.0141 µM | 
15 | O=c1cc(-c2ccc(Cl)cc2)oc2ccccc12 | 115 µM | 27.7 µM | 3210 | 0.0359 µM | 
16 | O=c1c(O)c(-c2ccc(O)c(O)c2)oc2cc(O)cc(O)c12 [QUERCETIN] |  | 7.75 µM | 3010 | 0.0845 µM | Active
17 | O=C1/C(=C/c2ccccc2Cl)Oc2ccccc21 | 339 µM |  |  |  | 

— ChEMBL document CHEMBL4616586, “Design, synthesis and biological evaluation of substituted flavones and aurones as potential anti-influenza agents” (Bioorg Med Chem, 2020)
